Measured values: patent publication US20250059164A1, “IRAK DEGRADERS AND USES THEREOF” (Kymera Therapeutics, Inc., priority 2023, published 2025)

Legend:
IRAK4 = target: T1, IRAK4 (Homo sapiens, UniProt Q9NWZ3); experiment: IRAK4 MSD degradation in OCI-LY10; format: cell-based; conditions: OCI-LY10 cells, 24 hrs, Meso Scale Discovery
T1 construct: endogenous in cells; host or cells: OCI-LY10
T1 sequence (Q9NWZ3 1-460): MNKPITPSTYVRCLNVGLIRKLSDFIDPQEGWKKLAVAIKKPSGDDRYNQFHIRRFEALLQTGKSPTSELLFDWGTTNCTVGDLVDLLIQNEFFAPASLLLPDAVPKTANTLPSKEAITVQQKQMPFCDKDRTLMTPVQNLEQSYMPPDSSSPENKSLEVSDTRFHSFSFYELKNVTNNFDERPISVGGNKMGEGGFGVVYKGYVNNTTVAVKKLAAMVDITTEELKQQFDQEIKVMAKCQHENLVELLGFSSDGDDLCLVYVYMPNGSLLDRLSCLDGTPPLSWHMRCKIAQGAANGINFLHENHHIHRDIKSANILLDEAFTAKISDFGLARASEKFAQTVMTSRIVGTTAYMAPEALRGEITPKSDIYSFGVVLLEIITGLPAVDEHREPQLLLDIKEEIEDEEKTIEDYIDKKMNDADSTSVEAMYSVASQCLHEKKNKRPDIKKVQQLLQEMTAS
How it was run: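 Remaining IRAK4 protein measured by Meso Scale Discovery electrochemiluminescence sandwich assay on lysates of OCI-LY10 cells. Cells were exposed for 4 to 24 hours (37° C., 5% CO2) to eight 1:3-diluted concentrations starting at 1 to 10 μM. DC50 derived by three-parameter logistic fitting.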

[1] = Rodent pharmacokinetics (rat PK); format: in vivo; conditions: po, dosed intravenously or orally by gavage, plasma, read-out: F % (bioavailability)
Experimental: All studies related to handling, care, and treatment of rats in the study were performed according to the guidelines approved by the Institutional Animal Care and Use Committee (IACUC). All rats had access to food and water ad libitum. Rats were dosed intravenously or orally by gavage. Whole blood was collected from the jugular vein immediately prior to dosing and at 5 (intravenously administered drugs only), 15, and 30 min and 1, 2, 4, 8, and 24 h after drug administration. After sampling, whole blood was centrifuged at 4,000×g for 5 min at 4° C. to obtain plasma.
The letter codes for bioavailability (F %) include: A (≥5%) and B (≤5%).

| DC50 (IRAK4) [nM] | bioavailability [1] [%] | Compound |
| --- | --- | --- |
| < 10 | ≤ 5 | CN(C[C@H]1CC[C@H](n2cc(NC(=O)c3cnn4ccc(N5C[C@H]6C[C@@H]5CO6)nc34)c(C(F)F)n2)CC1)[C@H]1CCN(c2cccc3c2n(C)c(=O)n3C2CCC(=O)NC2=O)C[C@H]1F (single isomer, unassigned) [I-27] |
| < 10 | ≥ 5 | CN(C[C@H]1CC[C@H](n2cc(NC(=O)c3cnn4ccc(N5C[C@H]6C[C@@H]5CO6)nc34)c(C(F)F)n2)CC1)[C@H]1CCN(c2cccc3c2n(C)c(=O)n3C2CCC(=O)NC2=O)C[C@@H]1F (single isomer, unassigned) [I-28] |
| < 10 | ≥ 5 | O=C1CCC(c2ccc(N3CC(N4CCN([C@H]5CC[C@H](n6cc(NC(=O)c7cnn8ccc(N9C[C@H]%10C[C@@H]9CO%10)nc78)c(C(F)F)n6)CC5)CC4)C3)cc2Cl)C(=O)N1 (single isomer, unassigned) [I-46] |
| < 10 | ≥ 5 | Cn1c(=O)n(C2CCC(=O)NC2=O)c2cccc([C@@H]3CCN(C[C@H]4CC[C@H](c5nc6cc(C(C)(C)O)c(NC(=O)c7cccc(C(F)(F)F)n7)cc6s5)CC4)C[C@H]3F)c21 (single isomer, unassigned) [I-102] |
| < 10 | ≥ 5 | CN(C[C@H]1CC[C@H](c2nc3cc(C(C)(C)O)c(NC(=O)c4cccc(C(F)(F)F)n4)cc3s2)CC1)[C@@H]1CCN(c2cccc3c2n(C)c(=O)n3C2CCC(=O)NC2=O)C[C@@H]1F (single isomer, unassigned) [I-104] |
| < 10 | ≤ 5 | COc1cc2nn([C@H]3CC[C@H](CN4CC[C@H](c5cccc6c5n(C)c(=O)n6C5CCC(=O)NC5=O)C(F)(F)C4)CC3)cc2cc1NC(=O)c1cncc(C#N)c1 (single isomer, unassigned) [I-106] |
| < 10 | ≤ 5 | Cn1c(=O)n(C2CCC(=O)NC2=O)c2cccc([C@@H]3CCN(C[C@H]4CC[C@H](n5cc6cc(NC(=O)c7cncc(C(F)(F)F)n7)ccc6n5)CC4)C[C@H]3F)c21 (single isomer, unassigned) [I-112] |
| > 200 | ≤ 5 | COc1cc2nc([C@H]3CC[C@H](CN4CC[C@H](c5cccc6c5n(C)c(=O)n6C5CCC(=O)NC5=O)C(F)(F)C4)CC3)sc2cc1NC(=O)c1cncc(C#N)c1 (single isomer, unassigned) [I-140] |
| 10 to 100 | ≥ 5 | CN(C[C@H]1CC[C@H](c2nc3cc(C(C)(C)O)c(NC(=O)c4cncc(C(F)(F)F)c4)cc3s2)CC1)[C@@H]1CCN(c2cccc3c2n(C)c(=O)n3C2CCC(=O)NC2=O)C[C@H]1F (single isomer, unassigned) [I-159] |
| < 10 | ≥ 5 | CN(C[C@H]1CC[C@H](c2nc3cc(C(C)(C)O)c(NC(=O)c4cncc(C(F)(F)F)c4)cc3s2)CC1)[C@@H]1CCN(c2cccc3c2n(C)c(=O)n3C2CCC(=O)NC2=O)C[C@@H]1F (single isomer, unassigned) [I-161] |
| < 10 | ≥ 5 | CN(C[C@H]1CC[C@H](c2nc3cc(C(C)(C)O)c(NC(=O)c4cncc(C(F)(F)F)c4)cc3s2)CC1)[C@H]1CCN(c2cccc3c2n(C)c(=O)n3C2CCC(=O)NC2=O)C[C@H]1F (single isomer, unassigned) [I-162] |
| < 10 | ≥ 5 | Cn1c(=O)n(C2CCC(=O)NC2=O)c2cccc([C@H]3CCN(C[C@H]4CC[C@H](n5cc6cc(NC(=O)c7cncc(C(F)(F)F)n7)ccc6n5)CC4)CC3(F)F)c21 (single isomer, unassigned) [I-180] |
| < 10 | ≥ 5 | CN(C[C@H]1CC[C@H](c2nc3cc(C(C)(C)O)c(NC(=O)c4cccc(C(F)(F)F)c4)cc3s2)CC1)[C@@H]1CCN(c2cccc3c2n(C)c(=O)n3C2CCC(=O)NC2=O)C[C@@H]1F (single isomer, unassigned) [I-192] |
| 10 to 100 | ≥ 5 | CN(C[C@H]1CC[C@H](c2nc3cc(C(C)(C)O)c(NC(=O)c4cccc(C(F)(F)F)c4)cc3s2)CC1)[C@H]1CCN(c2cccc3c2n(C)c(=O)n3C2CCC(=O)NC2=O)C[C@H]1F (single isomer, unassigned) [I-199] |
| < 10 | ≤ 5 | Cn1c(=O)n(C2CCC(=O)NC2=O)c2cccc([C@H]3CCN(C[C@H]4CC[C@H](n5cc6cc(NC(=O)c7cncc(C(F)(F)F)n7)ncc6n5)CC4)CC3(F)F)c21 (single isomer, unassigned) [I-205] |
| 10 to 100 | ≥ 5 | Cn1c(=O)n(C2CCC(=O)NC2=O)c2cccc([C@@H]3CCN(C[C@H]4CC[C@H](n5cc6cc(NC(=O)c7cncc(C(F)(F)F)n7)ncc6n5)CC4)CC3(F)F)c21 (single isomer, unassigned) [I-206] |
| < 10 | ≤ 5 | Cn1c(=O)n([C@@H]2CCC(=O)NC2=O)c2cccc([C@@H]3CCN(C[C@H]4CC[C@H](n5cc6cc(NC(=O)c7cncc(C(F)(F)F)n7)ccc6n5)CC4)C[C@H]3F)c21 (single isomer, unassigned) [I-208] |
| < 10 | ≤ 5 | Cn1c(=O)n([C@H]2CCC(=O)NC2=O)c2cccc([C@@H]3CCN(C[C@H]4CC[C@H](n5cc6cc(NC(=O)c7cncc(C(F)(F)F)n7)ccc6n5)CC4)C[C@H]3F)c21 (single isomer, unassigned) [I-209] |
| < 10 | ≤ 5 | CN(C[C@H]1CC[C@H](c2cn3cc(NC(=O)c4cncc(C(F)(F)F)n4)ccc3n2)CC1)[C@@H]1CCN(c2cccc3c2n(C)c(=O)n3C2CCC(=O)NC2=O)C[C@@H]1F (single isomer, unassigned) [I-213] |
| < 10 | ≥ 5 | Cn1nc(C2CCC(=O)NC2=O)c2cccc([C@@H]3CCN(C[C@H]4CC[C@H](n5cc6cc(NC(=O)c7cncc(C#N)c7)c(C(C)(C)O)cc6n5)CC4)CC3(F)F)c21 (single isomer, unassigned) [I-222] |
| < 10 | ≤ 5 | Cn1nc(C2CCC(=O)NC2=O)c2cccc([C@H]3CCN(C[C@H]4CC[C@H](n5cc6cc(NC(=O)c7cncc(C#N)c7)c(C(C)(C)O)cc6n5)CC4)CC3(F)F)c21 (single isomer, unassigned) [I-223] |
| < 10 | ≤ 5 | Cn1c(=O)n(C2CCC(=O)NC2=O)c2ccc(F)c([C@@H]3CCN(C[C@H]4CC[C@H](n5cc6cc(NC(=O)c7cncc(C#N)c7)c(C(C)(C)O)cc6n5)CC4)CC3(F)F)c21 (single isomer, unassigned) [I-226] |
| < 10 | ≤ 5 | Cn1c(=O)n(C2CCC(=O)NC2=O)c2cccc([C@@H]3CCN(C[C@H]4CC[C@H](c5nc6cc(C(C)(C)O)c(NC(=O)c7cncc(C#N)c7)cc6s5)CC4)C[C@H]3F)c21 (single isomer, unassigned) [I-229] |
| < 10 | ≥ 5 | CN(C[C@H]1CC[C@H](c2nc3cc(C(C)(C)O)c(NC(=O)c4cccc(C(F)(F)F)n4)cc3s2)CC1)[C@@H]1CCN(c2cccc3c2n(C)c(=O)n3C2CCC(=O)NC2=O)C[C@H]1F (single isomer, unassigned) [I-238] |
| < 10 | ≤ 5 | COc1cc2nn([C@H]3CC[C@H](CN4CC[C@@H](c5cccc6c5n(C)c(=O)n6C5CCC(=O)NC5=O)C(F)(F)C4)CC3)cc2cc1NC(=O)c1cncc(C#N)c1 (single isomer, unassigned) [I-240] |
| < 10 | ≤ 5 | COc1cc2nn([C@H]3CC[C@H](CN4CC[C@@H](c5cccc6c(C7CCC(=O)NC7=O)nn(C)c56)[C@H](F)C4)CC3)cc2cc1NC(=O)c1cncc(C#N)c1 (single isomer, unassigned) [I-263] |
| < 10 | ≤ 5 | COc1cc2nn([C@H]3CC[C@H](CN4CC[C@H](c5cccc6c(C7CCC(=O)NC7=O)nn(C)c56)[C@@H](F)C4)CC3)cc2cc1NC(=O)c1cncc(C#N)c1 (single isomer, unassigned) [I-264] |
| < 10 | ≤ 5 | COc1cc2nn([C@H]3CC[C@H](CN4CC[C@H](c5cccc6c5c(C)nn6C5CCC(=O)NC5=O)[C@@H](F)C4)CC3)cc2cc1NC(=O)c1cncc(C#N)c1 (single isomer, unassigned) [I-266] |
| > 200 | ≤ 5 | COc1cc2nc([C@H]3CC[C@H](CN4CC[C@@H](c5cccc6c5n(C)c(=O)n6C5CCC(=O)NC5=O)C(F)(F)C4)CC3)sc2cc1NC(=O)c1cncc(C#N)c1 (single isomer, unassigned) [I-273] |
| < 10 | ≥ 5 | CN(C[C@H]1CC[C@H](n2cc(NC(=O)c3cnn4cccnc34)c(C(F)F)n2)CC1)[C@@H]1CCN(c2cccc3c2n(C)c(=O)n3C2CCC(=O)NC2=O)C[C@H]1F (single isomer, unassigned) [I-279] |
